Test results from patent US20080146633A1, “COMPOSITIONS FOR SKIN LIGHTENING AND TONING DOWN PIGMENT DISORDERS, COMPRISING CREATININE AND/OR CREATININE DERIVATIVES AS ACTIVE SUBSTANCES” (GOLDSCHMIDT GMBH, priority 2002, published 2008).

Tests used:
[1] = test system: fungi tyrosinase; experiment: Tyrosinase inhibition (L-Dopa to dopachrome, absorption at 475 nm); format: biochemical; conditions: 15 min at room temperature
Procedure: The inhibition of fungi tyrosinase was determined as a function of different concentrations of creatinine (0.05 to 1.7% by volume) by reference to the enzymatic reaction of L-Dopa to dopachrome. The absorption maximum of the dopachrome is at a wavelength of 475 nm. The tyrosinase inhibition is calculated in accordance with the following equation:
Inhibition [%]={100−[(Esample*100)/Ereference]} (1)
each measurement was carried out in duplicate, with parallel mixtures. The variation of the method is ±10%,
25 mM acetate buffer (pH 4.9): dilute from 0.2 M acetate buffer (pH 4.9) (Sigma) Phosphate buffer (pH 7): Titrosol (Merck) 20 mM L-DOPA (in acetate buffer) Tyrosinase stock solution: 40 U/ml of phosphate buffer Stock solution of creatinine: 0.45 M in phosphate buffer
The DOPA solution and the tyrosinase stock solution were prepared only prior to the start of the experiment. The L-DOPA solutions should be stored in a dark place and in vessels which can be sealed tightly.
500 μL of DOPA stock solution 400 μL of creatinine solution or phosphate buffer (reference) 100 μL of tyrosinase stock solution Following the addition of the enzyme, the samples were thoroughly mixed using a “Reax Top” (Heidolph). Following an incubation period of 15 min at room temperature, the absorption at 475 nm was determined. The measurement was carried out using a “Helios Beta” spectrophotometer from Unicam.

[2] = test system: MelanoDerm in vitro skin model (melanocytes); experiment: In vitro skin model test (MelanoDerm), melanin determined quantitatively; format: cell-based; conditions: for Melanin: applied every 48 hours
Source text: The skin-lightening effect was validated on an in vitro skin model, the MelanoDerm™ from MatTek. This model is very similar in structure and function to the natural skin and has the cell types relevant in the epidermis including the melanocytes, which are responsible for the synthesis of the main pigment melanin. Further information can be found, for example, in M. K. King et al. in Proceedings of Society of Cosmetic Chemists Annual Scientific Meeting and Technology Showcase 1998, 35-36. Creatinine, kojic acid dipalmitate as positive standard and water as negative control were applied every 48 hours over a period of 21 days to the in vitro skin model.
The melanin produced by the melanocytes was determined quantitatively on the 17th and 21st day.

| SMILES | Tyrosinase inhibition (%) ([1]; creatinine 0.05 % by volume) | Tyrosinase inhibition (%) ([1]; creatinine 0.30 % by volume) | Tyrosinase inhibition (%) ([1]; creatinine 0.60 % by volume) | Tyrosinase inhibition (%) ([1]; creatinine 0.90 % by volume) | Tyrosinase inhibition (%) ([1]; creatinine 1.10 % by volume) | Tyrosinase inhibition (%) ([1]; creatinine 1.40 % by volume) | Tyrosinase inhibition (%) ([1]; creatinine 1.70 % by volume) | Melanin ([2]; Day 17) [µg] | Melanin ([2]; Day 21) [µg] | Effectiveness compared with kojic acid dipalmitate (positive standard) ([2]; upon prolonged application) |
| --- | --- | --- | --- | --- | --- | --- | --- | --- | --- | --- |
| CN1CC(=O)NC1=N [Creatinine, 2-imino-N-methylhydantoin] | 1.77 | 9.97 | 14.21 | 20.75 | 24.81 | 28.15 | 32.18 | 94.5 | 12.67 | twice as effective |
| CCCCCCCCCCCCCCCC(=O)OCc1cc(=O)c(OC(=O)CCCCCCCCCCCCCCC)co1 [Kojic dipalmitate, kojic acid dipalmitate, reference compound] |  |  |  |  |  |  |  | 102.5 | 82.67 |  |
